In PubChem BioAssay AID1963875 (Molecular Pharmacology Branch, DTP, NCI, 2024):

Tested on: KRAS-mutant PDC complex spheroid viability
Assay: Anticancer human tumor 186277-243-T-J2-PDC patient-derived colon adenocarcinoma cell line growth inhibition [KRAS2]
Settings: for IC50: curve of first compound; for viability, T/C: stronger effect = lower value
Excerpt: Multicellular complex tumor spheroid response to RAS pathway inhibitors in combination with a targeted agents in patient-derived cell lines with oncogenic KRAS variants from multiple cancer types
A high-throughput screen of multi-cell type tumor spheroids was designed to identify active combinations of targeted small molecules and KRAS pathway inhibitors. Complex spheroids include a stromal component modeled by human endothelial cells (HUVEC) and fibroblasts modeled by human mesenchymal stem cells (MSCs). The concentration ranges selected for each drug and investigational agent were based upon clinically achievable concentrations if the clinical Cmax of the agent was known.
Compounds. The drugs and investigational agents: BI-3406 (NSC825286), BAY-293 (NSC824723), batoprotafib (TNO155; NSC825523), sotorasib (AMG 510; NSC818433), MRTX1257 (NSC819558), elimusertib (BAY 1895344; NSC800525), molibresib (GSK525762; NSC774829), temuterkib (LY3214996; NSC803410), venetoclax (NSC766270), alisertib (NSC759677), olaparib (NSC753686), talazoparib (NSC767125), erdafitinib (NSC781556), ipatasertib (NSC767898), cabozantinib (NSC761068), nintedanib (NSC756659), abemaciclib (NSC768073), docetaxel (NSC628503), trametinib (NSC758246), and sapanisertib (NSC764658) were obtained from the National Cancer Institute (NCI) Developmental Therapeutics Program Chemical Repository. The FDA-approved anticancer drug set is available from the Developmental Therapeutics Program. […] The stock solutions were prepared in dimethyl sulfoxide (DMSO, Sigma-Aldrich, St. Louis, MO, cat. D2650) at 800-fold the tested concentration and stored at -70 degrees C prior to their use. All drugs and investigational agents were tested over a range starting from a high concentration at or near the clinical Cmax and decreasing in half-log increments. If the clinical Cmax for an agent had not been determined, the highest concentration tested was 10 microM.
Cell Culture. All cells were maintained in an incubator at 37 degrees C and 5% CO2 with 95% humidity. The PDC lines were cultured according to standard operating procedures established by the NCI PDMR (https://pdmr.cancer.gov/sops/default.htm). Briefly, all PDCs were thawed and cultured in Matrigel-coated flasks prepared with a working solution of 1X Ham's F-12 nutrient mix, without supplementation (Invitrogen, Waltham, MA, cat. 11765054), 100 U/mL penicillin-streptomycin (Invitrogen, cat. 15140122), and 2.5% Matrigel (Corning Inc., Corning, NY, cat. 354248) for the first three passages. All PDCs were cultured in complete DMEM/F-12 media containing advanced DMEM/F-12 (Invitrogen, cat. 12634028), 4.9% defined fetal bovine serum, heat inactivated (HyClone Laboratories Inc., Logan, UT, cat. SH30070.03HI), 389 ng/mL hydrocortisone (Sigma-Aldrich, cat. H4001), 9.7 ng/mL human EGF recombinant protein (Invitrogen, cat. PHG0313), 23.4 microg/mL adenine (Sigma-Aldrich, cat. A2786), 97.3 U/mL penicillin-streptomycin (Invitrogen, cat. 15140122), 1.9 mM L-glutamine (Invitrogen, cat. 25030081), and 9.7 microM Y-27632 dihydrochloride (Tocris Bioscience, Bristol, United Kingdom, cat. 1254). The PDCs were cultured in complete DMEM/F12 media without 9.7 microM Y-27632 dihydrochloride for at least two passages prior to the screen. The established cell line HOP-62 was cultured in RPMI 1640 medium, HEPES (Invitrogen, cat. 22400105) with 10% defined fetal bovine serum (HyClone Laboratories Inc., cat. SH30070.03) and 2 mM L-glutamine (Invitrogen, cat. 25030081). The pooled donor HUVEC were cultured in endothelial cell growth medium 2 (PromoCell, Heidelberg, Germany, cat. C-22011) and the hMSC were cultured in mesenchymal stem cell growth medium 2 (PromoCell, cat. C-28009). For all experiments, HUVEC and hMSC were used at passages </=5, while the malignant cell lines were used at passages </=15. […]

[1] = second compound 0.1 µM, first compound 0.00316 µM
[2] = second compound 0.1 µM, first compound 0.01 µM
[3] = second compound 0.1 µM, first compound 0.0316 µM
[4] = second compound 0.316 µM, first compound 0.00316 µM
[5] = second compound 0.316 µM, first compound 0.01 µM
[6] = second compound 0.316 µM, first compound 0.0316 µM
[7] = second compound 1 µM, first compound 0.00316 µM
[8] = second compound 1 µM, first compound 0.01 µM
[9] = second compound 1 µM, first compound 0.0316 µM
[10] = second compound 3.16 µM, first compound 0.00316 µM
[11] = second compound 3.16 µM, first compound 0.01 µM
[12] = second compound 3.16 µM, first compound 0.0316 µM
[13] = second compound 10 µM, first compound 0.00316 µM
[14] = second compound 10 µM, first compound 0.01 µM
[15] = second compound 10 µM, first compound 0.0316 µM
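Wherever viability, T/C is given: viability read after seven days of compound exposure; 100% = DMSO vehicle-treated spheroids so lower means less viable.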

| Compound | IC50 (second compound 0.1 µM) [nM] | IC50 (second compound 0.316 µM) [nM] | IC50 (second compound 1 µM) [nM] | IC50 (second compound 3.16 µM) [nM] | IC50 (second compound 10 µM) [nM] | viability, T/C [1] [%] | viability, T/C [2] [%] | viability, T/C [3] [%] | viability, T/C [4] [%] | viability, T/C [5] [%] | viability, T/C [6] [%] | viability, T/C [7] [%] | viability, T/C [8] [%] | viability, T/C [9] [%] | viability, T/C [10] [%] | viability, T/C [11] [%] | viability, T/C [12] [%] | viability, T/C [13] [%] | viability, T/C [14] [%] | viability, T/C [15] [%] | further results |
| --- | --- | --- | --- | --- | --- | --- | --- | --- | --- | --- | --- | --- | --- | --- | --- | --- | --- | --- | --- | --- | --- |
| CCN1CCN(Cc2ccc(Nc3ncc(F)c(-c4cc(F)c5nc(C)n(C(C)C)c5c4)n3)nc2)CC1 + CC1OCC2(CCN(c3cnc(Sc4ccnc(N)c4Cl)c(N)n3)CC2)C1N | > 1000 | 839 | 574 | 326 | 102 | 96.9 | 88.9 | 113 | 95.2 | 98.7 | 138 | 88.8 | 118 | 138 | 113 | 130 | 97 | 123 | 92.3 | 67 | viability, T/C (second compound 0.1 µM, first compound 0.1 µM): 148%; viability, T/C (second compound 0.1 µM, first compound 0.316 µM): 161%; viability, T/C (second compound 0.1 µM, first compound 1 µM): 60.8%; viability, T/C (second compound 0.316 µM, first compound 0.1 µM): 155%; viability, T/C (second compound 0.316 µM, first compound 0.316 µM): 125%; viability, T/C (second compound 0.316 µM, first compound 1 µM): 36.8%; viability, T/C (second compound 1 µM, first compound 0.1 µM): 125%; viability, T/C (second compound 1 µM, first compound 0.316 µM): 82.3%; viability, T/C (second compound 1 µM, first compound 1 µM): 19.9%; viability, T/C (second compound 3.16 µM, first compound 0.1 µM): 85.1%; viability, T/C (second compound 3.16 µM, first compound 0.316 µM): 52.2%; viability, T/C (second compound 3.16 µM, first compound 1 µM): 8.29%; viability, T/C (second compound 10 µM, first compound 0.1 µM): 56.8%; viability, T/C (second compound 10 µM, first compound 0.316 µM): 28.7%; viability, T/C (second compound 10 µM, first compound 1 µM): 3.85% |
| CC(=O)Nc1cccc(-n2c(=O)n(C3CC3)c(=O)c3c(Nc4ccc(I)cc4F)n(C)c(=O)c(C)c32)c1 + C=CC(=O)N1CCN(c2nc(=O)n(-c3c(C)ccnc3C(C)C)c3nc(-c4c(O)cccc4F)c(F)cc23)C(C)C1 | 0.625 | 0.659 | 0.583 | 0.444 | 0.11 | 8.67 | 2.97 | 1.31 | 9 | 3.1 | 1.46 | 7.6 | 4.82 | 1.76 | 9.32 | 2.47 | 1.47 | 4.23 | 0.78 | 0.43 | viability, T/C (second compound 0.1 µM, first compound 0.0001 µM): 99.2%; viability, T/C (second compound 0.1 µM, first compound 0.000316 µM): 96.3%; viability, T/C (second compound 0.1 µM, first compound 0.001 µM): 18%; viability, T/C (second compound 0.316 µM, first compound 0.0001 µM): 100%; viability, T/C (second compound 0.316 µM, first compound 0.000316 µM): 99.7%; viability, T/C (second compound 0.316 µM, first compound 0.001 µM): 21.9%; viability, T/C (second compound 1 µM, first compound 0.0001 µM): 111%; viability, T/C (second compound 1 µM, first compound 0.000316 µM): 86.7%; viability, T/C (second compound 1 µM, first compound 0.001 µM): 17.4%; viability, T/C (second compound 3.16 µM, first compound 0.0001 µM): 90.9%; viability, T/C (second compound 3.16 µM, first compound 0.000316 µM): 65.8%; viability, T/C (second compound 3.16 µM, first compound 0.001 µM): 11.9%; viability, T/C (second compound 10 µM, first compound 0.0001 µM): 53.6%; viability, T/C (second compound 10 µM, first compound 0.000316 µM): 9.73%; viability, T/C (second compound 10 µM, first compound 0.001 µM): 3.83% |
